Consider 1 compound from patent publication US7659081B2, “Determination of AM-binding proteins and the association of adrenomedullin (AM) therewith” (The United States of America as represented by the …, priority 1999, dated 2010).

For assay [1], the target named is T1, factor H (Homo sapiens, UniProt P08603). The assay is described as follows: Cofactor activity of factor H: C3b cleavage with factor I. It counts as biochemical. The note with it: 24 hr at 37° C. As for the experimental part: FIG. 10 illustrates the effect of AM on factor H activity. C3b (104 kDa α′ chain and 71 kDa β chain) was incubated 24 hr at 37° C. with factor H, factor I, and various peptides. Cleavage of the C3b α′ chain produced three bands with molecular weights 68 kD, 43 kD, and 42 kD.
T1 sequence (P08603 19-1231): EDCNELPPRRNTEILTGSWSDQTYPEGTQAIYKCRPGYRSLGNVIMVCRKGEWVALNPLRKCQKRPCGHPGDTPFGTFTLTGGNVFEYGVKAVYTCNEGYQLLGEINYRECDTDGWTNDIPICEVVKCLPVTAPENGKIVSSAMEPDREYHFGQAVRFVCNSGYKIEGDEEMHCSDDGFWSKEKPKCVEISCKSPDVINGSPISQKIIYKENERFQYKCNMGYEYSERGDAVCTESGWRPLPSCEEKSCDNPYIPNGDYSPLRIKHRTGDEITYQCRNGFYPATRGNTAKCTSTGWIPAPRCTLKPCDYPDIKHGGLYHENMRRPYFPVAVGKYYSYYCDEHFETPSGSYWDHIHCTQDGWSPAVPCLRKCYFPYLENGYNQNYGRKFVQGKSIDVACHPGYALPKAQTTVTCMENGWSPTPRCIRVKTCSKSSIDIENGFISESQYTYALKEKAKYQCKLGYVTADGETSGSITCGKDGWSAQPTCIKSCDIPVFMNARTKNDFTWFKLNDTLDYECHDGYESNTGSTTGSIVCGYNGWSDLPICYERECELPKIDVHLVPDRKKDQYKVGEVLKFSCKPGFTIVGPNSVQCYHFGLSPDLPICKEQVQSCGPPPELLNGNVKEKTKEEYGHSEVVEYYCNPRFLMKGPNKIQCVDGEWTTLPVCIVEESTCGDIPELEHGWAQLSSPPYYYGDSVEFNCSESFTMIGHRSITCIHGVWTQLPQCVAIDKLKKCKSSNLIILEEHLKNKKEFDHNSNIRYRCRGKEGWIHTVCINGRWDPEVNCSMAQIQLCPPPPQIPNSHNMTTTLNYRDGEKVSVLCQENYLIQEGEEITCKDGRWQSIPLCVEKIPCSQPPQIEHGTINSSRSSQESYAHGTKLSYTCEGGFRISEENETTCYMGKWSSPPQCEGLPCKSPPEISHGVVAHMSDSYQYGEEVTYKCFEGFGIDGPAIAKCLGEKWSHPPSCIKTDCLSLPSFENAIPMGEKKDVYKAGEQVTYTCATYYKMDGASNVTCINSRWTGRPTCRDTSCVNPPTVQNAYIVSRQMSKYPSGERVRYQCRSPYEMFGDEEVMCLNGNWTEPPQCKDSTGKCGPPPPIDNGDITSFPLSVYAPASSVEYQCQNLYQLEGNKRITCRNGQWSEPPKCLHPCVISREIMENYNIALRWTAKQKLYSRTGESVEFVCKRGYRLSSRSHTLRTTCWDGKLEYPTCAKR
To measure the cofactor activity of factor H, C3b (28 pmols) was incubated with factor I (0.16 pmols) and factor H (0.16 pmols) in the presence or absence of AM and related peptides for 24 hr at 37° C. in a final volume of 50 μl of PBS. Samples were fractionated by SDS-PAGE using 4-12% Tris-Bis gels (Novex) under reducing conditions, and stained with Coomassie Blue. C3b and factor I were purchased from Advanced Research Technologies (San Diego, Calif.). FIGS. 10A and 10B.

The test system of the next assay is pancreatic islets. The assay can be described thus: Insulin secretion and cAMP in isolated pancreatic islets. It counts as cell-based, rat. The following applies: islets with AM and/or factor H. The text has this: A representative experiment is shown. Values for each treatment represent the mean and standard deviation of three independent wells. […] All values were statistically different (p<0.05) from the negative controls (first bar).
Pancreatic islets were isolated from 12 rats as previously described (A. Martínez et al., 2000, Endocrinology 141:406-411). Briefly, the heart of each rat was perfused with Hank's balanced salt solution (Sigma) to remove blood from pancreatic vessels. A small canula was inserted into the common biliary duct while the coledoco was sealed. Twenty to twenty-five milliliters of 0.4 mg/ml collagenase XI (Sigma) in Hank's solution was pumped through the canula until the pancreas was fully inflated. The pancreas was removed and incubated at 37° C. for 20 min. Following this, 20 ml of ice-cold Hank's solution was added and the pancreas dissociated by vigorous vortexing. After several washes, the islets were collected and distributed into 24 well plates using a dissecting microscope, with approximately 70 islets per well.
Freshly isolated islets were incubated in RPMI-1640 (Life Technologies) containing 5.6 mM glucose for 45 min at 37° C. […] Insulin and cAMP were measured by radioimmunoassay with commercial kits (Amersham, Arlington Heights, Ill.), according to the manufacturer's directions. […]

A further assay concerns insulin secretion. The following applies: cited from earlier work.
The target in assay [2] is T1, factor H. The assay can be described thus: Multi-well plate competition of fluorescein-labeled AM binding to factor H. More on the design: purchased Sigma. The following applies: 50 nM fluorescein-labeled AM; factor H 5 ng/well; increasing concentrations of unlabeled competitor. As to the method: Lane 1: horseradish peroxidase (5 μg), a glycosylated protein used as positive control; Lane 2: soybean trypsin inhibitor (5 μg), a non-glycosylated protein used as negative control; Lane 3: AMBP-1 (2 μg). […] Lane 1: isoelectric focusing markers; Lane 2: AMBP-1 (4 μg). […] Lane 1: AMBP-1 (100 ng); Lane 2: AMBP-1 (200 ng); Lane 3: commercially available human factor H (50 ng); Lane 4: human plasma (0.2 μl). […] Results represent one of two independent experiments. Values represent mean and standard deviation of three determinations. “B/B0” indicates the ratio of signals generated in the presence/absence of unlabeled competitor.
Alternatively, the AM/fH interaction was analyzed using a multi-well assay. In accordance with this assay, a 96-well polyvinylchloride (PVC) plate was coated with factor H (5 ng/well, Sigma, St. Louis, Mo.). The plate was blocked with a solution containing TBS, 0.1% ATC, and 0.1% TWEEN® 20 nonionic detergent, and then incubated with fluorescein-labeled AM (50 nM) for 2 hr. Prior to the development of the assay, the wells were incubated for various time periods with PBS or 3M NaSCN pH 7.4. Following this, the plate was washed and incubated with anti-fluorescein polyclonal antibody (1:1000, Molecular Probes) and ^125I-Protein A (Amersham Pharmacia Biotech). Radioactivity was determined using a gamma counter. FIG. 6B.

SMILES strings stand for the structures.

For the compound `CC[C@H](C)[C@H](NC(=O)[C@H](CCC(N)=O)NC(=O)[C@H](Cc1c[nH]cn1)NC(=O)[C@H](C)NC(=O)[C@H](CC(C)C)NC(=O)[C@H](CCCCN)NC(=O)[C@H](CCC(N)=O)NC(=O)[C@@H](NC(=O)[C@@H](NC(=O)[C@@H]1CSSC[C@H](NC(=O)CNC(=O)[C@H](Cc2ccccc2)NC(=O)[C@H](CO)NC(=O)[C@H](CCCNC(=N)N)NC(=O)[C@H](CC(C)C)NC(=O)CNC(=O)[C@H](CCC(N)=O)NC(=O)[C@H](Cc2ccccc2)NC(=O)[C@H](CC(N)=O)NC(=O)[C@H](CC(N)=O)NC(=O)[C@H](CCSC)NC(=O)[C@H](CO)NC(=O)[C@H](CCC(N)=O)NC(=O)[C@H](CCCNC(=N)N)NC(=O)[C@@H](N)Cc2ccc(O)cc2)C(=O)N[C@@H](CCCNC(=N)N)C(=O)N[C@@H](Cc2ccccc2)C(=O)NCC(=O)N[C@@H]([C@@H](C)O)C(=O)N1)[C@@H](C)O)C(C)C)C(=O)N[C@@H](Cc1ccc(O)cc1)C(=O)N[C@@H](CCC(N)=O)C(=O)N[C@@H](Cc1ccccc1)C(=O)N[C@H](C(=O)N[C@@H](CC(=O)O)C(=O)N[C@@H](CCCCN)C(=O)N[C@@H](CC(=O)O)C(=O)N[C@@H](CCCCN)C(=O)N[C@@H](CC(=O)O)C(=O)N[C@@H](CC(N)=O)C(=O)N[C@H](C(=O)N[C@@H](C)C(=O)N1CCC[C@H]1C(=O)N[C@@H](CCCNC(=N)N)C(=O)N[C@@H](CO)C(=O)N[C@@H](CCCCN)C(=O)N[C@H](C(=O)N[C@@H](CO)C(=O)N1CCC[C@H]1C(=O)N[C@@H](CCC(N)=O)C(=O)NCC(=O)N[C@@H](Cc1ccc(O)cc1)C(N)=O)[C@@H](C)CC)C(C)C)[C@@H](C)O` [AM, Adrenomedullin], the “Effect on fH/fI-mediated cleavage of C3b” value on factor H [1] was “enhances fH/fI-mediated cleavage of C3b”. In the assay on pancreatic islets, the cAMP in islets entry is “concomitant elevations on cAMP”. The Insulin secretion entry was “dose-dependent decreases in insulin secretion” in the assay on pancreatic islets (20.6 mM glucose, 45 min) and “inhibits insulin secretion in a dose-dependent manner” with insulin secretion. Besides, the “Effect on binding of fluorescein-labeled AM to factor H-coated plate” value at factor H [2] is on record as “competitively inhibited”.
